For 32 molecules, inhibition and IC50 results are on record in ChEMBL document CHEMBL3112544, “Discovery of ZAP70 inhibitors by high-throughput docking into a conformation of its kinase domain generated by molecular dynamics” (Bioorg Med Chem Lett, 2013).

The source made the active and inactive calls. The rule behind the calls is not given here.

For experiment [1], the target named is T1, Tyrosine-protein kinase ZAP-70 (Homo sapiens) (UniProt P43403).
T1 sequence (whole entry): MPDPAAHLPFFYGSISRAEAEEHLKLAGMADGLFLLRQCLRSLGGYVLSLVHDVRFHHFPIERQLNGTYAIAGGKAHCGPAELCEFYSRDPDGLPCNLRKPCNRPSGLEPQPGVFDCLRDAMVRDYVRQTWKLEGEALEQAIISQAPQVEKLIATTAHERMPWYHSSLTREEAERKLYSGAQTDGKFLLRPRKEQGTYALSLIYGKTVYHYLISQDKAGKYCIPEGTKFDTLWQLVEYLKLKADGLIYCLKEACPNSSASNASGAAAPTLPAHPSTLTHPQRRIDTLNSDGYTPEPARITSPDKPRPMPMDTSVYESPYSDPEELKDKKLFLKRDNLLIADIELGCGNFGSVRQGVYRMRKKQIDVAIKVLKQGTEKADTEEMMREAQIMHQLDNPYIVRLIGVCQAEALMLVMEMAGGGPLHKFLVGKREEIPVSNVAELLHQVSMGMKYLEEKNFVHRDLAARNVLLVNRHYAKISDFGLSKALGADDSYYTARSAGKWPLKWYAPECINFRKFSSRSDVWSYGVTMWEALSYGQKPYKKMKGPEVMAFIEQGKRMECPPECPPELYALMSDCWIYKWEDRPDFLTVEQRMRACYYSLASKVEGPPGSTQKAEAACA
Put plainly: Inhibition of full-length ZAP70 (unknown origin) at 20 uM by radioactive ATP method.

Experiment [2] addresses T2, Tyrosine-protein kinase JAK2 (Homo sapiens, UniProt O60674). Nature of the experiment: Inhibition of JAK2 (unknown origin) by radioactive ATP method.
Experiment [3] concerns the target T3, Tyrosine-protein kinase SYK (Homo sapiens, UniProt P43405). Nature of the experiment: Inhibition of SYK (unknown origin) at 20 uM by radioactive ATP method.
The target in experiment [4] is T4, Tyrosine-protein kinase ZAP-70 (Homo sapiens, UniProt P43403).
T4 sequence (P43403 whole entry): T1 sequence (whole entry)
Nature of the experiment: Inhibition of full-length ZAP70 (unknown origin) by radioactive ATP method.

In experiment [5] the target is T3, Tyrosine-protein kinase SYK. Nature of the experiment: Inhibition of SYK (unknown origin) by radioactive ATP method.
For experiment [6], the target named is T2, Tyrosine-protein kinase JAK2. Put plainly: Inhibition of JAK2 (unknown origin) at 20 uM by radioactive ATP method.

T2 sequence (O60674 whole entry): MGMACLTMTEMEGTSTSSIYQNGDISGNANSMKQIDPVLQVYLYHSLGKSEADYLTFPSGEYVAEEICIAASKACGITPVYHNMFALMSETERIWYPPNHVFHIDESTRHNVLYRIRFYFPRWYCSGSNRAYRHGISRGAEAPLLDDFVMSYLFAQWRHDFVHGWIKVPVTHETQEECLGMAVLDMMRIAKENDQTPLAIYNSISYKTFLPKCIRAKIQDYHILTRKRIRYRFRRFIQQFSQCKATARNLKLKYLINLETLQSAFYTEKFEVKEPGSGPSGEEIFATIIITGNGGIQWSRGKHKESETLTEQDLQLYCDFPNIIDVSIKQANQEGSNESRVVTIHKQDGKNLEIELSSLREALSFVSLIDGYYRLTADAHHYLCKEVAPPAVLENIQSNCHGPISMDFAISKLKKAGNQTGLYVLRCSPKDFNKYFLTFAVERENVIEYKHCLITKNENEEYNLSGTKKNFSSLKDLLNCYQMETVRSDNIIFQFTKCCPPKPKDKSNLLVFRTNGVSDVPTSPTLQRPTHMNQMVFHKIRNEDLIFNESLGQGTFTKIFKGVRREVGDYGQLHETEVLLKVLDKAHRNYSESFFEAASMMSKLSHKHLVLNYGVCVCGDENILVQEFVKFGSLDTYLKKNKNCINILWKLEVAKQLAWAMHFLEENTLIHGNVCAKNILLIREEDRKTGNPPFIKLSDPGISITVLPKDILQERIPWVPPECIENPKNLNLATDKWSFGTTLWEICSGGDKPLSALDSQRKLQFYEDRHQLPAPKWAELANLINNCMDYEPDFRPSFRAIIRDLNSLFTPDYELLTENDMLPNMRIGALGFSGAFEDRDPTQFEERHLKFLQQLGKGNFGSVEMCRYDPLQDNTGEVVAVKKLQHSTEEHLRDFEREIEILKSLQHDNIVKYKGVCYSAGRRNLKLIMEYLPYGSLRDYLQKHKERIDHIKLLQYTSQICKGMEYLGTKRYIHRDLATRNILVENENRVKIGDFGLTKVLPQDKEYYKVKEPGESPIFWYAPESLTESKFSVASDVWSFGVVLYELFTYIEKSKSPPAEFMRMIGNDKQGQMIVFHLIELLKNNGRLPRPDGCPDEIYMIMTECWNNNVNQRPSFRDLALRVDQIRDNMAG

Turning to `O=C1NC(=O)N(c2ccccc2F)C(=O)/C1=C\c1cccn1-c1ccccc1`, the inhibition (as a rule, the change of the read-out against control, counted positive when it falls) in experiment [1] is “inactive”.

Turning to `O=C1NC(=O)N(c2ccc(F)cc2)C(=O)/C1=C\c1cccn1-c1ccc(O)cc1`, the inhibition result in experiment [1] is “inactive”. On the same count and under the same terms, then `O=C1N/C(=C/c2ccc(O)cc2)C(=O)N1c1ccccc1`, with “inactive”; and `N[C@@H](CO)C(=O)N1CCc2[nH]nc(-c3ccc(F)c(F)c3)c2C1`, with “inactive”.

In the case of `O=C1NN(c2ccccc2)C(=O)/C1=C\c1cc(Cl)ccc1OCc1ccccc1`, the IC50 – broadly, the concentration that gives 50% inhibition – came to 15 µM in experiment [2] and 22 µM in experiment [4]. Moreover, the inhibition in experiment [3] was determined as 16%. `O=C1NN(c2ccccc2)C(=O)/C1=C/c1ccc(-c2ccccc2Cl)o1`: the IC50 is 57 µM in experiment [5] and 14 µM in experiment [4].

As to `O=C1NC(=S)N/C1=C1\C(=O)N(Cc2ccccc2Cl)c2ccccc21`, the IC50 in experiment [5] was 168 µM; in experiment [4] it was 21 µM. Consider `O=C1NC(=O)N(c2cccc(F)c2)C(=O)/C1=C\c1cccn1-c1ccccc1`, for which, in experiment [1], the inhibition entry is “inactive”. The same measure, in the same setting: then `O=C(c1ccc2[nH]cnc2c1)N1CCc2[nH]nc(-c3cccc(Cl)c3)c2C1`, with “inactive”. Take `Cc1cc(/C=C2/C(=O)NN(c3ccccc3)C2=O)c(C)n1-c1cccc(O)c1`: the inhibition in experiment [3] turned out to be 16%; in experiment [1] it was 43%. With `CCOc1ccc(Nc2nc(N)c(C(=O)c3cccc(OC)c3)s2)cc1`, the IC50 in experiment [5] is greater than 200 µM; in experiment [4] it was 29 µM. On to `O=C1Nc2ccc3c(oc4ccccc43)c2C1=NNc1ccncc1`, for which the IC50 in experiment [2] was determined as 11 µM; in experiment [5], 26 µM; in experiment [4], 8 µM. For the molecule `CCn1c(N)c(-c2csc(-c3ccc(O)cc3)n2)c(=O)[nH]c1=O`, the inhibition result in experiment [1] is “inactive”. As for `O=C(c1ccc2[nH]c(=O)[nH]c2c1)N1CCc2[nH]nc(-c3ccccc3)c2C1`, the inhibition result in experiment [1] is “inactive”.

Take `O=C1Nc2ccc(S(=O)(=O)Cc3ccc4ccccc4c3)c3cccc1c23`: in experiment [1], the inhibition result was “inactive”. On the same count and under the same terms, in the case of `Nc1ccc(C(=O)N2CCc3[nH]nc(-c4cc(F)cc(F)c4)c3C2)cn1` it was “inactive”; in that of `O=c1[nH]c2ccc(S(=O)(=O)NC3CC3)cc2c2ccccc12`, “inactive”; in that of `N#C/C(=C1/C(=O)Nc2ccccc21)c1nc2ccccc2[nH]1`, “inactive”. On to `O=C1NN(c2ccc(F)cc2)C(=O)/C1=C\c1cccc(OCc2ccccc2F)c1`, for which the values for the inhibition in experiment [6], in experiment [3] and in experiment [1] were 22%, 16% and 46%, respectively. Take `O=C1NN(c2ccccc2)C(=O)/C1=C/c1ccc(-c2ccccc2)o1`: the inhibition in experiment [3] came out at 17%; in experiment [1] it was 49%. Consider `Cc1ccc2[nH]c3c(c2c1)CCC1C3=NNC1c1ccccc1` (stereo unspecified), for which, in experiment [1], the inhibition entry was “inactive”. `Oc1ccc(-c2ccnc3cc(Cl)ccc23)cc1CN1CCCCC1`: the inhibition result in experiment [1] is “inactive”. Take `Cc1ccc(-c2n[nH]c3c2CN(c2ncc(F)c(NCCO)n2)CC3)cc1`: the inhibition entry in experiment [1] is “inactive”.

On to `COc1ccc(NC2=NC3NN=C(N)C3C3=C2CN(C)CC3)cc1` (stereo unspecified), for which the inhibition entry in experiment [1] was “inactive”. The same measure, in the same setting: then `Cc1cc(NC(=O)c2sc(Nc3ccccc3)nc2N)on1`, with “inactive”; and `Clc1cccc(C2C=C(c3cccnc3)Nc3nc4ccccc4n32)c1` (stereo unspecified), with “inactive”. Same read-out and setting: in the case of `COc1ccc(/C=C2/NC(=O)N(c3cccc(Cl)c3)C2=O)cc1O` it was “inactive”; in that of `COc1cccc(-c2ccnc3[nH]n(-c4ccccc4)c(=O)c23)c1`, “inactive”.

On to `CC(C)c1ccc(-c2c(C#N)c(N)nc3sc(C(N)=O)c(N)c23)cc1`, for which, in experiment [1], the inhibition entry is “inactive”. Consider `O=C1Nc2ccccc2/C1=C(\c1ccccc1)c1nc2ccccc2[nH]1`, for which the IC50 in experiment [5] worked out at 40 µM; in experiment [4] it was 26 µM.

On to `COc1ccc(Nc2nc(N3CCOCC3)c3nc[nH]c3n2)cc1OC`, for which the figures for the IC50 in experiment [2], in experiment [5] and in experiment [4] were 0.11 µM, 12 µM and 62 µM, respectively. For `CC(=O)Nc1ccc(OS(=O)(=O)c2ccc3[nH]c(=O)[nH]c3c2)cc1`, the inhibition result in experiment [1] is “inactive”.
